From ChEMBL document CHEMBL3227976, “Synthesis of steroidal nitrosoureas with antitumor activity” (1979)

How the values were obtained:
Format in all cases: functional
Conditions in all cases: Rattus norvegicus, 13762, sc; route subcutaneous; read-out: TGI
13762 [1] = experiment: Antitumor activity against rat 13762 cells allografted in Fischer/344 rat assessed as tumor growth inhibition at 40 mg/kg/day, sc for 10 days followed by double the dose every 2 days from day 11 to day 19 relative to vehicle-treated control
13762 [2] = experiment: Antitumor activity against rat 13762 cells allografted in Fischer/344 rat assessed as tumor growth inhibition at 2 mg/kg/day, sc for 10 days followed by double the dose every 2 days from day 11 to day 19 relative to vehicle-treated control
13762 [3] = experiment: Antitumor activity against rat 13762 cells allografted in Fischer/344 rat assessed as tumor growth inhibition at 10 mg/kg/day, sc for 10 days followed by double the dose every 2 days from day 11 to day 19 relative to vehicle-treated control

C[C@]12CC[C@@H]3c4ccc(O)cc4CC[C@H]3[C@@H]1CC[C@@]2(O)CNC(=O)N(CCCl)N=O
inhibition in vivo at 40 mg/kg/day 13762 [1]: 85%
inhibition in vivo at 2 mg/kg/day 13762 [2]: 0%
inhibition in vivo at 10 mg/kg/day 13762 [3]: 35%

CN(N=O)C(=O)NC[C@]1(O)CC[C@H]2[C@@H]3CCc4cc(O)ccc4[C@H]3CC[C@@]21C
inhibition in vivo at 40 mg/kg/day 13762 [1]: 23%
inhibition in vivo at 2 mg/kg/day 13762 [2]: 0%
inhibition in vivo at 10 mg/kg/day 13762 [3]: 10%

C[C@]12CC[C@@H]3c4ccc(O)cc4CC[C@H]3[C@@H]1CC[C@@H]2NC(=O)N(CCCl)N=O
inhibition in vivo at 40 mg/kg/day 13762 [1]: 100%
inhibition in vivo at 2 mg/kg/day 13762 [2]: 0%
inhibition in vivo at 10 mg/kg/day 13762 [3]: 50%

CN(N=O)C(=O)N[C@H]1CC[C@H]2[C@@H]3CCc4cc(O)ccc4[C@H]3CC[C@]12C
inhibition in vivo at 40 mg/kg/day 13762 [1]: 15%
inhibition in vivo at 2 mg/kg/day 13762 [2]: 4%
inhibition in vivo at 10 mg/kg/day 13762 [3]: 15%

O=NN(CCCl)C(=O)NC1CCCCC1 [LOMUSTINE]
inhibition in vivo at 10 mg/kg/day 13762 [3]: 80%
